Reference: US20200129482A1, “TREATMENT OF NON-SMALL CELL LUNG CANCER” (AbbVie Inc., priority 2017, published 2020)
Entries after “also recorded” stand apart in the source; their conditions may differ.

Key:
[1] = system: NSCLC patients; assay: M10-898 clinical trial: survival by LSP status, C/P+veliparib vs C/P; type: in vivo, human; details: C/P+veliparib vs carboplatin/paclitaxel (C/P), FIG. 1 left
Excerpt: (§1) Time to death (overall survival, OS) for a given subject was defined as the number of days from the date that the subject was randomized to the date of the subject's death. All events of death were included, regardless of whether the event occurred while the subject was still taking veliparib/placebo or had previously discontinued veliparib/placebo.
(§2) Tumor samples for study were from biopsies taken prior to entry onto veliparib clinical trials M10-898 and M11-089. Tumor DNA/RNA was obtained by macrodissecting tumor area (>50% tumor content) from formalin-fixed, paraffin-embedded tumor slides. RNA and DNA was isolated using AllPrep kit (Qiagen).
RNAseq RPKM data of 52 LSP genes of Table 1 were obtained from sequenced samples of M10-898 clinical trial (https://clinicaltrials.gov/ct2/show/NCT01560104), purchased tissues and M11-089 (https://clinicaltrials.gov/ct2/show/NCT02106546). The RPKM data was log transformed and normalized in order to adjust for batch effects before entering the analyses. […]
FIG. 1 represents the impact of treatment and patient outcome in M10-898 as a function of LSP status in M10-898 (left) and M11-089 (right). […] The restricted mean survival time was calculated and is represented on the Y-axis.

[2] = system: NSCLC patients; assay: M11-089 clinical trial: survival by LSP status or stemness score, C/P+veliparib vs C/P; type: in vivo, human; details: for median overall survival in LSP- and LSP+ patients / survival (restricted mean survival time, hazard ratio) as a function of LSP status: M11-089; for median overall survival in LSP- and LSP+ patients: C/P+veliparib vs C/P alone, FIG. 2; for survival (restricted mean survival time, hazard ratio) as a function of LSP status: C/P+veliparib vs carboplatin/paclitaxel (C/P), LSP+ vs LSP- patients, FIG. 1 right; for survival in relation to stemness score (mRNAsi): M11-089 samples, stemness score >=0.5 vs <0.5, FIGS. 4 and 5
Excerpt: as §1, §2
RNAseq RPKM data of 52 LSP genes of Table 1 were obtained from sequenced samples of M10-898 clinical trial (https://clinicaltrials.gov/ct2/show/NCT01560104), purchased tissues and M11-089 (https://clinicaltrials.gov/ct2/show/NCT02106546). The RPKM data was log transformed and normalized in order to adjust for batch effects before entering the analyses. Unsupervised Clustering was performed on 52 LSP genes from M10-898 and purchased tissues to form 3 clusters of subtypes (AD (Adenocarcinoma), NE (Neuroendocrine), SQ (Squamous)), according to the consistency of known histology defined biologically distinct subtypes. The 52 LSP genes from M10-898 and purchased tissues together with the AD vs. nonAD labelling from unsupervised clustering is served as the training data. A shrunken centroid classifier is built based on the training data. The final classifier takes normalized RPKM data of 52 LSP genes as input, and outputs the probability of being nonAD subtype (prob (AD)=1-prob (nonAD)) for each RNAseq sample from M11-089. The subtype calls (nonAD vs. AD) is based on the probability strength. The subtype call will be labelled unknown If the absolute logarithm of odds (defined as Prob (nonAD)/Prob (AD)) is less than 0.15.
FIG. 1 represents the impact of treatment and patient outcome in M10-898 as a function of LSP status in M10-898 (left) and M11-089 (right). Patients were categorized as LSP− or LSP+ using RNA expression as depicted on the x-axis. Patients treated with carboplatin/paclitaxel (C/P) are listed in dotted lines, patients treated with C/P+veliparib (V) are listed in solid lines. The restricted mean survival time was calculated and is represented on the Y-axis.
Summary statistics for each comparison are shown below FIG. 2.
We examined the M11-089 samples to relate the stemness index to survival with Veliparib. In general, an index ranging from 0 to 1 is created for each tumor sample. Tumor cells closer to 1 are more similar to stem cells and more aggressive than tumor cells closer to 0.
We derived the stemness score from our samples based on stemness Index Derived using OCLR (mRNAsi) (T. M. Matta, et al., Cell, 2018, 173(2): 338-354), and methodology and code reference is based on the public available information (http://tcgabiolinks.fmrp.usp.br/PanCanStem/mRNAsi.html). The log gene expression for m11-089 is the batch effect corrected combined batch 1,2,3,4 data.

Structure (SMILES): C[C@]1(c2nc3c(C(N)=O)cccc3[nH]2)CCCN1 [Veliparib, veliparib]
- survival (restricted mean survival time, hazard ratio) as a function of LSP status [1]: statistically significant survival advantage only in the LSP+ population
- survival (restricted mean survival time, hazard ratio) as a function of LSP status ([1]; listed as veliparib): benefit observed in signature subgroup
- median overall survival in LSP- and LSP+ patients [2]: statistically significant survival advantage only in the LSP+ population
- median overall survival in LSP- and LSP+ patients ([2]; listed as veliparib): increased Overall Survival (OS) observed in LSP positive NSCLC patients
- survival (restricted mean survival time, hazard ratio) as a function of LSP status [2]: statistically significant survival advantage only in the LSP+ population
- survival (restricted mean survival time, hazard ratio) as a function of LSP status ([2]; listed as veliparib): benefit observed in signature subgroup
- survival in relation to stemness score (mRNAsi) [2]: better survival
- survival in relation to stemness score (mRNAsi) ([2]; listed as veliparib): better survival; also recorded: provides a benefit to subgroup of patients
